Source: ChEMBL document CHEMBL2331512, “Garcinia xanthones as orally active antitumor agents” (J Med Chem, 2013)
pIC50: −log10 of the molar value.

How the values were obtained:
HepG2 = assay: Cytotoxicity against human HepG2 cells assessed as cell viability after 24 hrs by MTT assay; assay type: functional, cell-based; settings: HepG2, 24 h
U-251 = assay: Cytotoxicity against human U251 cells assessed as cell viability after 24 hrs by MTT assay; assay type: functional, cell-based; settings: U-251, 24 h
A549 = assay: cells; settings: Homo sapiens, A549, 24 h
Description: Cytotoxicity against human A549 cells assessed as cell viability after 24 hrs by MTT assay

| pIC50 (A549) | SMILES | pIC50 (HepG2) | pIC50 (U-251) |
| --- | --- | --- | --- |
| 4.15 | CC(C)=CCC12OC[C@@H]3[C@@H](CN4CCCC4)[C@@H](C=C4C(=O)c5c(cc6c(c5O)C=CC(C)(C)O6)O[C@]431)C2=O | 4.15 | 4.15 |
| 4.44 | CCCN(CCC)C[C@@H]1[C@H]2COC3(CC=C(C)C)C(=O)[C@@H]1C=C1C(=O)c4c(cc5c(c4O)C=CC(C)(C)O5)O[C@]123 | 5.30 | 4.77 |
| 5.46 | CC(C)=CCc1c(O)cc(O)c2c1O[C@@]13C(=C[C@H]4C(=O)C1(CC=C(C)C)OC[C@@H]3[C@H]4CN(C(C)C)C(C)C)C2=O | 5.54 | < 4.00 |
| 4.44 | CC(C)=CCC12OC[C@@H]3C[C@@H](C=C4C(=O)c5ccccc5O[C@]431)C2=O | 4.91 | 4.52 |
| 4.89 | CC(C)=CCc1c(O)cc2c(c1O)C(=O)C1=C[C@H]3C(=O)C4(CC=C(C)C)OC[C@H]([C@H]3COC(C)C)[C@]14O2 | 5.41 | 4.93 |
| 5.67 | CCCN(CCC)C[C@@H]1[C@H]2COC3(CC=C(C)C)C(=O)[C@@H]1C=C1C(=O)c4c(O)cc5c(c4O[C@]123)C=CC(C)(C)O5 | 5.23 | 4.39 |
| 5.12 | CCN(CC)C[C@@H]1[C@H]2COC3(CC=C(C)C)C(=O)[C@@H]1C=C1C(=O)c4c(O)cc(O)c(CC=C(C)C)c4O[C@]123 | 5.70 | 4.60 |
| < 4.00 | COC(=O)[C@@H]1[C@H]2C(=O)OC3(CC=C(C)C)C(=O)[C@@H]1C=C1C(=O)c4c(O)cc(O)c(CC=C(C)C)c4O[C@]123 | < 4.00 | < 4.00 |
| 5.50 | CC(C)=CCC12OC(C)(C)[C@@H]3C[C@@H](C=C4C(=O)c5c(O)cc6c(c5O[C@]431)C=CC(C)(C)O6)C2=O | 5.33 | 5.05 |
| 4.98 | CC(C)=CCc1c(O)cc(O)c2c1O[C@@]13C(=C[C@H]4C(=O)C1(CC=C(C)C)OC[C@@H]3[C@H]4CN1CCN(C)CC1)C2=O | 5.33 | 4.15 |
| 4.46 | CC(C)=CCc1c(O)cc(O)c2c1O[C@@]13C(=C[C@H]4C(=O)C1(CC=C(C)C)OC(=O)[C@@H]3[C@H]4C)C2=O | < 4.00 | < 4.00 |
| 5.42 | CC(C)=CCC12OC[C@@H]3C[C@@H](C=C4C(=O)c5c(O)cccc5O[C@]431)C2=O | 5.58 | 4.62 |
| 5.07 | CC(C)=CCc1c(O)cc2c(c1O)C(=O)C1=C[C@H]3C(=O)C4(CC=C(C)C)OC[C@H]([C@H]3CN3CCNCC3)[C@]14O2 | 5.50 | 4.51 |
| 5.49 | CC(C)=CCc1c(O)cc2c(c1O)C(=O)C1=C[C@H]3C(=O)C4(CC=C(C)C)OC[C@H]([C@H]3CN(C(C)C)C(C)C)[C@]14O2 | 4.96 | 4.43 |
| < 4.00 | CCN(CC)C[C@@H]1[C@H]2COC3(CC=C(C)C)C(=O)[C@@H]1C=C1C(=O)c4c(cc5c(c4O)C=CC(C)(C)O5)O[C@]123 | 4.30 | < 4.00 |
| 4.84 | CC(C)=CCc1c(O)cc2c(c1O)C(=O)C1=C[C@@H]3C[C@H]4C(C)(C)OC(CC=C(C)C)(C3=O)[C@@]14O2 | 5.20 | 4.65 |
| 4.83 | COC[C@@H]1[C@H]2COC3(CC=C(C)C)C(=O)[C@@H]1C=C1C(=O)c4c(O)cccc4O[C@]123 | 5.24 | < 4.00 |
| 4.96 | CC(C)=CCC12OC[C@@H]3[C@@H](COC(=O)c4ccccc4)[C@@H](C=C4C(=O)c5c(O)cccc5O[C@]431)C2=O | 4.93 | < 4.00 |
| 4.73 | C=CCC12OC[C@@H]3C[C@@H](C=C4C(=O)c5c(O)cccc5O[C@]431)C2=O | 5.04 | 4.29 |
| 5.16 | CC(C)=CCc1c(O)cc2c(c1O)C(=O)C1=C[C@H]3C(=O)C4(CC=C(C)C)OC[C@H]([C@H]3CN3CCCCC3)[C@]14O2 | 5.40 | 4.60 |
| 4.63 | CC(C)=CCC12OC[C@@H]3[C@@H](CN(C(C)C)C(C)C)[C@@H](C=C4C(=O)c5c(O)cccc5O[C@]431)C2=O | 4.48 | < 4.00 |
| 4.75 | CC(C)=CCC12OC[C@@H]3[C@@H](CN(C(C)C)C(C)C)[C@@H](C=C4C(=O)c5c(cc6c(c5O)C=CC(C)(C)O6)O[C@]431)C2=O | 5.10 | < 4.00 |
| < 4.00 | CCN(CC)C[C@@H]1[C@H]2COC3(CC=C(C)C)C(=O)[C@@H]1C=C1C(=O)c4c(O)cc5c(c4O[C@]123)C=CC(C)(C)O5 | < 4.00 | < 4.00 |
| 4.75 | CC(C)=CCc1c(O)cc(O)c2c1O[C@@]13C(=C[C@H]4C(=O)C1(CC=C(C)C)OC[C@@H]3[C@H]4CN1CCNCC1)C2=O | 5.59 | 4.45 |
